The values that follow come from BindingDB's records for doi:10.1021/acs.jmedchem.5b00865 (A.V. Bogatsky Physico-Chemical Institute of The National …, 2015).

A word on the IC50: it is the concentration that gives 50% inhibition.

The structures appear in SMILES notation.

Test [1] concerns the target Integrin alpha-IIb/beta-3 (Homo sapiens). The test is described as follows: Antagonist activity against integrin alpha2bbeta3 closed form in human platelet rich plasma assessed as inhibition of ADP-induced platelet aggregation.
Test [2] shares this target. In words: Antagonist activity against integrin alpha2bbeta3 open form in human platelet rich plasma assessed as inhibition of ADP-induced platelet aggregation.

With `O=C(Nc1ccc2nc(N3CCNCC3)[nH]c(=O)c2c1)C1CCNCC1`, in test [1], the IC50 was 100 nM.
Same read-out and setting: to `NCCCC(=O)Nc1ccc2nc(N3CCNCC3)[nH]c(=O)c2c1` belongs 11 nM; to `NCCC(=O)Nc1ccc2nc(N3CCNCC3)[nH]c(=O)c2c1`, 150 nM.
In the case of `O=C(CCNC(=O)c1ccc2c(c1)CNCC2)NC[C@@H](NS(=O)(=O)c1ccccc1)C(=O)O`, the IC50 in test [2] came to 25 nM.
On the same count and under the same terms, to `O=C(CCNC(=O)c1ccc2c(c1)CNCC2)NC[C@H](NS(=O)(=O)c1ccccc1)C(=O)O` belongs 6.2 nM.
On the same count and under the same terms, under `CCCCS(=O)(=O)N[C@H](CNC(=O)CCNC(=O)c1ccc2c(c1)CNCC2)C(=O)O` stands 670 nM.
The same measure, in the same setting: under `CCCCS(=O)(=O)N[C@@H](CNC(=O)CCNC(=O)c1ccc2c(c1)CNCC2)C(=O)O` stands 320 nM.
